In patent US20090018111A1, “Novel Antimicrobial Medicament” (priority 2004, published 2009):
Like-named read-outs stand apart in the source and are kept apart here.

Legend:
Assay in all cases: Sensitivity test (agar dilution)
[1] = tested on: E. faecalis ATCC19433; type: cell-based, Enterococcus faecalis; settings: Enterococcus faecalis, E. faecalis ATCC19433
How it was run: (§1)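 MICs were determined by agar dilution on Mueller Hinton agar containing twofold serial dilutions of single drugs or drug combinations. Overnight 37° C cultures were suspended in gelatin-buffered saline at about 10^6 CFU/ml, and about 5 μl was spot-inoculated. FIC index was calculated from MICs; ≤1 denotes enhancement.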

[2] = tested on: M. catarrhalis ATCC8176; type: cell-based, Moraxella catarrhalis; settings: Moraxella catarrhalis, M. catarrhalis ATCC8176
How it was run: as §1

[3] = tested on: M. catarrhalis ATCC25238; type: cell-based, Moraxella catarrhalis; settings: Moraxella catarrhalis, M. catarrhalis ATCC25238
How it was run: as §1

[4] = tested on: M. luteus ATCC9341; type: cell-based, Micrococcus luteus; settings: Micrococcus luteus, M. luteus ATCC9341
How it was run: as §1

[5] = tested on: B. subtilis ATCC6633; type: cell-based, Bacillus subtilis; settings: Bacillus subtilis, B. subtilis ATCC6633
How it was run: as §1

[6] = tested on: S. marcescens GN6473; type: cell-based, Serratia marcescens; settings: Serratia marcescens, S. marcescens GN6473
How it was run: as §1

[7] = tested on: S. marcescens X 100; type: cell-based, Serratia marcescens; settings: Serratia marcescens, S. marcescens X 100
How it was run: as §1

[8] = tested on: P. mirabiris GN2425; type: cell-based, Proteus mirabilis; settings: Proteus mirabilis, P. mirabiris GN2425
How it was run: as §1

[9] = tested on: S. epidermidis IAM1296; type: cell-based, Staphylococcus epidermidis; settings: Staphylococcus epidermidis, S. epidermidis IAM1296
How it was run: as §1

[10] = tested on: Str. pyogenes Cook; type: cell-based, Streptococcus pyogenes; settings: Streptococcus pyogenes, Str. pyogenes Cook
How it was run: as §1

[11] = tested on: P. vurgalis OX-19; type: cell-based, Proteus vulgaris; settings: Proteus vulgaris, P. vurgalis OX-19
How it was run: as §1

[12] = tested on: P. vulgaris GN7919; type: cell-based, Proteus vulgaris; settings: Proteus vulgaris, P. vulgaris GN7919
How it was run: as §1

[13] = tested on: E. aerogenes ATCC13048; type: cell-based, Enterobacter aerogenes; settings: Klebsiella aerogenes, E. aerogenes ATCC13048
How it was run: as §1

[14] = ATCC19433, drug alone, read-out: MIC alone
[15] = ATCC8176, drug alone, read-out: MIC alone
[16] = ATCC25238, drug alone, read-out: MIC alone
[17] = ATCC9341, drug alone, read-out: MIC alone
[18] = ATCC6633, drug alone, read-out: MIC alone
[19] = GN6473, drug alone, read-out: MIC alone
[20] = X100, drug alone, read-out: MIC alone
[21] = IAM1296, drug alone, read-out: MIC alone
[22] = drug alone, read-out: MIC alone
[23] = GN7919, drug alone, read-out: MIC alone
[24] = ATCC13048, drug alone, read-out: MIC alone

Q: `CCN1CCN(C(=O)N[C@@H](C(=O)N[C@@H]2C(=O)N3[C@@H]2SC(C)(C)[C@@H]3C(=O)O)c2ccccc2)C(=O)C1=O` [PIPC, piperacillin] was tested. Which MIC ([1]; ATCC19433, Concomitant (PIPC:SM = 1:1), read-out: MIC concomitant) did it give?
A: 0.5 µg/mL

Q: What about the MIC [1, 14] of the same molecule?
A: 2 µg/mL

Q: And the MIC ([2]; ATCC8176, Concomitant (PIPC:SM = 1:1), read-out: MIC concomitant)?
A: ≤ 0.002 µg/mL

Q: And the MIC [2, 15]?
A: 0.016 µg/mL

Q: And the MIC ([3]; ATCC25238, Concomitant (PIPC:SM = 1:1), read-out: MIC concomitant)?
A: ≤ 0.002 µg/mL

Q: What about the MIC [3, 16] of the same molecule?
A: 0.008 µg/mL

Q: And the MIC ([4]; ATCC9341, Concomitant (PIPC:SM = 1:1), read-out: MIC concomitant)?
A: ≤ 0.002 µg/mL

Q: What about the MIC [4, 17] of the same molecule?
A: 0.031 µg/mL

Q: And the MIC ([5]; ATCC6633, Concomitant (PIPC:SM = 1:1), read-out: MIC concomitant)?
A: ≤ 0.002 µg/mL

Q: What about the MIC [5, 18] of the same molecule?
A: 0.125 µg/mL

Q: And the MIC ([6]; GN6473, Concomitant (PIPC:SM = 1:1), read-out: MIC concomitant)?
A: 4 µg/mL

Q: What about the MIC [6, 19] of the same molecule?
A: > 32 µg/mL

Q: What about the MIC ([7]; X100, Concomitant (PIPC:SM = 1:1), read-out: MIC concomitant) of the same molecule?
A: 0.25 µg/mL

Q: And the MIC [7, 20]?
A: 0.5 µg/mL

Q: What about the MIC ([8]; GN2425, read-out: MIC alone, drug alone) of the same molecule?
A: 0.25 µg/mL

Q: And the MIC ([8]; GN2425, read-out: MIC concomitant, Concomitant (PIPC:SM = 1:1))?
A: 0.063 µg/mL

Q: What about the MIC ([9]; IAM1296, Concomitant (PIPC:SM = 1:1), read-out: MIC concomitant) of the same molecule?
A: 0.016 µg/mL

Q: What about the MIC [9, 21] of the same molecule?
A: 2 µg/mL

Q: What about the MIC ([10]; Concomitant (PIPC:SM = 1:1), read-out: MIC concomitant) of the same molecule?
A: ≤ 0.002 µg/mL

Q: And the MIC [10, 22]?
A: 0.031 µg/mL

Q: What about the MIC ([11]; OX19, read-out: MIC alone, drug alone) of the same molecule?
A: 0.008 µg/mL

Q: And the MIC ([11]; OX19, read-out: MIC concomitant, Concomitant (PIPC:SM = 1:1))?
A: 0.008 µg/mL

Q: What about the MIC ([12]; GN7919, Concomitant (PIPC:SM = 1:1), read-out: MIC concomitant) of the same molecule?
A: 0.5 µg/mL

Q: And the MIC [12, 23]?
A: > 32 µg/mL

Q: And the MIC ([13]; ATCC13048, Concomitant (PIPC:SM = 1:1), read-out: MIC concomitant)?
A: 8 µg/mL

Q: And the MIC [13, 24]?
A: 4 µg/mL

Q: What does the source list for `C[C@@H](O)[C@H]1C(=O)N2C(C(=O)O)=C(S[C@@H]3CN[C@H](CNS(N)(=O)=O)C3)[C@H](C)[C@H]12` [DRPM, doripenem]?
A: MIC ([1]; ATCC19433, Concomitant (DRPM:SM = 1:1), read-out: MIC concomitant): 1 µg/mL; MIC [1, 14]: 4 µg/mL; MIC ([2]; ATCC8176, Concomitant (DRPM:SM = 1:1), read-out: MIC concomitant): ≤ 0.002 µg/mL; MIC [2, 15]: 0.008 µg/mL; MIC ([3]; ATCC25238, Concomitant (DRPM:SM = 1:1), read-out: MIC concomitant): ≤ 0.002 µg/mL; MIC [3, 16]: 0.004 µg/mL; MIC ([4]; ATCC9341, Concomitant (DRPM:SM = 1:1), read-out: MIC concomitant): ≤ 0.002 µg/mL; MIC [4, 17]: 0.031 µg/mL; MIC ([5]; ATCC6633, Concomitant (DRPM:SM = 1:1), read-out: MIC concomitant): ≤ 0.002 µg/mL; MIC [5, 18]: 0.008 µg/mL; MIC ([6]; GN6473, Concomitant (DRPM:SM = 1:1), read-out: MIC concomitant): 0.063 µg/mL; MIC [6, 19]: 0.063 µg/mL; MIC ([7]; X100, Concomitant (DRPM:SM = 1:1), read-out: MIC concomitant): 0.031 µg/mL; MIC [7, 20]: 0.031 µg/mL; MIC ([8]; GN2425, Concomitant (DRPM:SM = 1:1), read-out: MIC concomitant): 0.063 µg/mL; MIC ([8]; GN2425, drug alone, read-out: MIC alone): 0.063 µg/mL; MIC ([9]; IAM1296, Concomitant (DRPM:SM = 1:1), read-out: MIC concomitant): 0.031 µg/mL; MIC [9, 21]: 0.5 µg/mL; MIC ([10]; Concomitant (DRPM:SM = 1:1), read-out: MIC concomitant): ≤ 0.002 µg/mL; MIC [10, 22]: ≤ 0.002 µg/mL; MIC ([11]; OX19, Concomitant (DRPM:SM = 1:1), read-out: MIC concomitant): 0.031 µg/mL; MIC ([11]; OX19, drug alone, read-out: MIC alone): 0.031 µg/mL; MIC ([12]; GN7919, Concomitant (DRPM:SM = 1:1), read-out: MIC concomitant): 0.063 µg/mL; MIC [12, 23]: 0.125 µg/mL; MIC ([13]; ATCC13048, Concomitant (DRPM:SM = 1:1), read-out: MIC concomitant): 0.031 µg/mL; MIC [13, 24]: 0.031 µg/mL
